This is an account of results in US20100331310A1, “BICYCLOAMINE DERIVATIVES” (priority 2008, published 2010).

In experiment [1] the test system is sodium channels in cultured rat hippocampus. The note with it: cited from earlier work.
The subject of a further experiment is ectopic firing. As to conditions: as described in Patent document 1; cited from earlier work.
The target in the next experiment is T1, human Nav1.8 (Homo sapiens, UniProt Q9Y5Y9).
T1 construct: expressed in transfected cells
The experiment is described as follows: Membrane potential increase-inhibitory action on TTX-resistant Na channels in cells expressing human Nav1.8 gene (deltamethrin stimulation). In kind it is cell-based. As to the method: A cell line expressing human Nav1.8 gene was used to evaluate the pharmacological effects of compounds of the invention.
1. A membrane potential-sensitive dye containing TTX (final concentration: 0.25 μM) was added to cells expressing human Nav1.8, prior to incubation at 37° C. for 30-60 minutes. 2. The test compound was added to the cells, and the mixture was stationed for 15-30 minutes at room temperature while shielded from light. 3. Deltamethrin (final concentration: 50 μM), a Nav1.8 channel stimulant, was added, and the change in fluorescence intensity due to increased membrane potential was measured.
The Nav1.8 channel inhibition of the test compound was determined by the following equation.

Experiment [2] deals with rats that exhibited ectopic firing (left saphenous nerve). Briefly: Suppression of ectopic firing in rats with cut saphenous nerve. As to conditions: rat, urethane anesthesia, administration via catheter in right cervical vein; number of firings every 10 seconds; read-out: Suppressing activity on ectopic firing, ED50. Format: in vivo. The method, then: (1) The suppressing effect on ectopic firing was evaluated by the following method, with reference to Burchiel, K J., Exp. Neurol., 102, 249-253 (1988). […] The left saphenous nerve was exposed under urethane anesthesia (1 g/kg body weight), and an area approximately 1 cm adjacent to the cutting site was removed from the surrounding tissue. A catheter was inserted into the right cervical vein for administration of the compound. (3) The removed nerve was placed on a platinum hook electrode and covered with liquid paraffin to avoid drying of the nerve. The electrode was connected to a microelectrode amp, and the change in potential was recorded on a computer from an oscilloscope, via an A/D converter. The recorded nerve firing was evaluated based on the number of firings every 10 seconds, using analysis software (AcqKnowledge).

Counter-ions that a name gives are not always drawn. A value given as a limit tells only on which side of the number the result lay.

The term IC50 denotes the concentration that gives 50% inhibition. Low values mean greater potency in that assay, high ones weaker potency in that assay. Usually ED50 stands for the dose that gives a 50% effect, or the effect in half of the subjects.

T1 sequence (Q9Y5Y9 whole entry): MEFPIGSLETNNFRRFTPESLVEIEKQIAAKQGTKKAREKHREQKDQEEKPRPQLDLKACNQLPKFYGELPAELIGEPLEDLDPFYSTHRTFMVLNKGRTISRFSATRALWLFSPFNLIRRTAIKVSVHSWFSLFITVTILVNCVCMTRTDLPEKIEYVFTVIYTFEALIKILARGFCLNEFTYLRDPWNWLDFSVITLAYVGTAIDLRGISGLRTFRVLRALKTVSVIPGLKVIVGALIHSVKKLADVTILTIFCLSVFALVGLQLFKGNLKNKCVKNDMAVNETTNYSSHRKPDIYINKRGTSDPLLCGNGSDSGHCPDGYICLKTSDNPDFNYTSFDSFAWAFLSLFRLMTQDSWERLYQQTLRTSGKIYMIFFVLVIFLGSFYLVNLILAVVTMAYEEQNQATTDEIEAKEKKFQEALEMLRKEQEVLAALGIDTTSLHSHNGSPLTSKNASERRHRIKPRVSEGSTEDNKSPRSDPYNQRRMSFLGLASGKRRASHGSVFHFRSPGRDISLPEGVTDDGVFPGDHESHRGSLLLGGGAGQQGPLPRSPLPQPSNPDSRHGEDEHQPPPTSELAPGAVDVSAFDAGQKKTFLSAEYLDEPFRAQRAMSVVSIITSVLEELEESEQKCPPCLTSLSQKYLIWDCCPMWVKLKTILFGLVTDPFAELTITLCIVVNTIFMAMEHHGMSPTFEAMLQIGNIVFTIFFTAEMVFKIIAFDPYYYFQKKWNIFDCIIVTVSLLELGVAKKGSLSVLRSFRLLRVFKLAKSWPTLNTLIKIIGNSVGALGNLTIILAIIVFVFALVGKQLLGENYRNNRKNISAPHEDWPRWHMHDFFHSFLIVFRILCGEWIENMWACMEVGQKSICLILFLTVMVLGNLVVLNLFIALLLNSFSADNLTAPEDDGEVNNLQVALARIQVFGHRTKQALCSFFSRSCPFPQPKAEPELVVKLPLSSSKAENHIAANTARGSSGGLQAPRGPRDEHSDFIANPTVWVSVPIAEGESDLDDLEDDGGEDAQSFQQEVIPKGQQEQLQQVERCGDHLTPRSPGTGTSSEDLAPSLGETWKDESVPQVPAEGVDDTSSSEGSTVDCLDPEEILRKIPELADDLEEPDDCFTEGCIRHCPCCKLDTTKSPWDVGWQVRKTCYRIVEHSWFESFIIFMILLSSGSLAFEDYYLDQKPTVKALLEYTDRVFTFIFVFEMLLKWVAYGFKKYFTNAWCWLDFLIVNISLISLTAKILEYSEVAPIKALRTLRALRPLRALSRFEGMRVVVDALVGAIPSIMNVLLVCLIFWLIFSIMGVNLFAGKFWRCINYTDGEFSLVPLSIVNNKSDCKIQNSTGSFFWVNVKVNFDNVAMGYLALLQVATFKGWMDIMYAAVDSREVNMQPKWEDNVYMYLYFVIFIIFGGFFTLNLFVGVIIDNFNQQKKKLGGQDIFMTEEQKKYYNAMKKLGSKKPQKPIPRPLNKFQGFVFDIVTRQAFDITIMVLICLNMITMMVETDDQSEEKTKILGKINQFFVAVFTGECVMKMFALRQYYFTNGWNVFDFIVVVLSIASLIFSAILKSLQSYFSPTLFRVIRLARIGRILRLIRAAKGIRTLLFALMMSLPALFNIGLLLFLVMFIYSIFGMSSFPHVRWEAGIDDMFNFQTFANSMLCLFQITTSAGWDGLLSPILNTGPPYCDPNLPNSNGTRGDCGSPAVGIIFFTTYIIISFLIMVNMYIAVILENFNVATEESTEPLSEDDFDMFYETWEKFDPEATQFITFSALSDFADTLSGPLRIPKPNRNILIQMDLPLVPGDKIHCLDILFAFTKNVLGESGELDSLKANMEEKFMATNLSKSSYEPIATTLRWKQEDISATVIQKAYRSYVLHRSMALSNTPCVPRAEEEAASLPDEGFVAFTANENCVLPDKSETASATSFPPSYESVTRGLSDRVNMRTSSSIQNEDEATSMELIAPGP

With `O=c1[nH]cccc1CN1CC2CCCC(C1)C2/C=C/c1ccccc1F` (stereo not shown), the “Inhibitory activity against sodium channels” value in experiment [1] is “has an inhibitory activity”. For the same molecule, the “Inhibitory activity against ectopic firing” value in the experiment with ectopic firing was “inadequate”.

As to `Cc1nn(C[C@H](F)CN2C3CCC2CC(OCc2cccc(F)c2)C3)c(=O)n1C` (stereo partly drawn) [Example 1, (Endo)-2-{(R)-2-fluoro-3-[3-(3-fluorobenzyloxy)-8-azabicyclo[3.2.1]oct-8-yl]propyl}-4,5-dimethyl-2,4-dihydro[1,2,4]triazol-3-one], half-maximal inhibition at human Nav1.8 (IC50) was put at 3.2 µM. In addition, the ED50 in experiment [2] came to 0.14 mg/kg.

Regarding `Cc1nn(C[C@H](F)CN2[C@@H]3CC[C@H]2C[C@@H](OCc2ccccc2F)C3)c(=O)n1C` [Example 4, (Endo)-2-{(R)-2-fluoro-3-[3-(2-fluorobenzyloxy)-8-azabicyclo[3.2.1]oct-8-yl]propyl}-4,5-dimethyl-2,4-dihydro[1,2,4]triazol-3-one], on human Nav1.8, the 50% inhibitory concentration (IC50) came to 5 µM. Moreover, the ED50 in experiment [2] was found to be 0.23 mg/kg.

`Cc1nn(C[C@H](F)CN2C3CCC2CC(OCc2ccccc2CF)C3)c(=O)n1C` (stereo partly drawn) [Example 6, (Endo)-2-{(R)-2-fluoro-3-[3-(2-fluoromethylbenzyloxy)-8-azabicyclo[3.2.1]oct-8-yl]propyl}-4,5-dimethyl-2,4-dihydro[1,2,4]triazol-3-one] had a concentration for half-maximal inhibition (IC50) against human Nav1.8 of 5.2 µM. Also, the median effective dose (ED50) in experiment [2] came out at 0.27 mg/kg.

At human Nav1.8, `Cc1nc(=O)n(C[C@@H](F)CN2C3CCC2CC(OCc2ccc(F)cc2)C3)c(=O)n1C` (stereo partly drawn) [Example 12, (Endo)-3-{(S)-2-fluoro-3-[3-(4-fluorobenzyloxy)-8-azabicyclo[3.2.1]oct-8-yl]propyl}-1,6-dimethyl-1H-[1,3,5]triazine-2,4-dione oxalate] returned an IC50 of 8.7 µM. In experiment [2], the ED50 was 0.28 mg/kg.

At human Nav1.8, `Cc1cccc(COC2CC3CCC(C2)N3CC(F)Cn2nc(N(C)C)n(C)c2=O)c1` (stereo not drawn) [Example 25, (Endo)-5-dimethylamino-2-{2-fluoro-3-[3-(3-methylbenzyloxy)-8-azabicyclo[3.2.1]oct-8-yl]propyl}-4-methyl-2,4-dihydro[1,2,4]triazol-3-one] registered an IC50 of 0.71 µM. Further, the ED50 in experiment [2] is < 0.1 mg/kg.

`Cc1cc(-n2c(C)nn(CC(O)CN3[C@@H]4CC[C@H]3C[C@@H](OCc3ccccc3F)C4)c2=O)on1` (stereo partly drawn) [Example 47, (Endo)-2-{3-[3-(2-fluorobenzyloxy)-8-azabicyclo[3.2.1]oct-8-yl]-2-hydroxypropyl}-5-methyl-4-(3-methyl-isoxazol-5-yl)-2,4-dihydro[1,2,4]triazol-3-one oxalate]: the IC50 against human Nav1.8 came to 1.3 µM. For the same molecule, the ED50 in experiment [2] was 0.18 mg/kg.

On to `O=c1n(-c2ccccc2)cnn1CCCN1[C@@H]2CC[C@H]1C[C@@H](OCc1ccccc1F)C2` [Example 58, (Endo)-2-{3-[3-(2-fluorobenzyloxy)-8-azabicyclo[3.2.1]oct-8-yl]propyl}-4-phenyl-2,4-dihydro[1,2,4]triazol-3-one], for which, on human Nav1.8, the 50% inhibitory concentration (IC50) was determined as 0.13 µM. The 50% effective dose (ED50) in experiment [2] was found to be 0.18 mg/kg.

In the case of `CN1CCn2c1nn(CC(F)CN1[C@@H]3CC[C@H]1C[C@@H](OCc1ccc(F)cc1)C3)c2=O` (stereo partly drawn) [Example 112, (Endo)-2-{2-fluoro-3-[3-(4-fluorobenzyloxy)-8-azabicyclo[3.2.1]oct-8-yl]propyl}-7-methyl-2,5,6,7-tetrahydroimidazo[2,1-c][1,2,4]triazol-3-one], the IC50 against human Nav1.8 turned out to be 12 µM. Also, the ED50 in experiment [2] came out at 0.29 mg/kg.

With `O=c1n(CCCN2[C@@H]3CC[C@H]2C[C@@H](OCc2ccccc2F)C3)nc2n1CCS2` [Example 116, (Endo)-2-{3-[3-(2-fluorobenzyloxy)-8-azabicyclo[3.2.1]oct-8-yl]propyl}-5,6-dihydro-2H-thiazolo[2,3-c][1,2,4]triazol-3-one], half-maximal inhibition against human Nav1.8 (IC50) required 5.8 µM. In addition, in experiment [2], the ED50 came out at 0.15 mg/kg.

On to `O=c1nc2n(c(=O)n1CCCN1[C@@H]3CC[C@H]1C[C@@H](CCc1ccccc1F)C3)CCCC2` [Example 129, (Endo)-3-(3-{3-[2-(2-fluorophenyl)ethyl)-8-azabicyclo[3.2.1]oct-8-yl}propyl]-6,7,8,9-tetrahydropyrido[1,2-a][1,3,5]triazine-2,4-dione oxalate], for which half-maximal inhibition against human Nav1.8 (IC50) required 9.8 µM. In addition, the median effective dose (ED50) in experiment [2] was 0.13 mg/kg.

The molecule `O=c1n(CCCN2[C@@H]3CC[C@H]2C[C@@H](OCc2ccccc2F)C3)nc2ccccn12` [Example 145, (Endo)-2-{3-[3-(2-fluorobenzyloxy)-8-azabicyclo[3.2.1]oct-8-yl]propyl}-2H-[1,2,4]triazolo[4,3-a]pyridin-3-one] gave an IC50 at human Nav1.8 of 0.53 µM. Besides, the median effective dose (ED50) in experiment [2] stood at 0.28 mg/kg.

Regarding `O=c1n(CCCN2[C@@H]3CC[C@H]2C[C@@H](CCc2ccccc2F)C3)nc2ccccn12` [Example 149, (Endo)-2-(3-{3-[2-(2-fluorophenyl)ethyl)-8-azabicyclo[3.2.1]oct-8-yl}propyl]-2H-[1,2,4]triazolo[4,3-a]pyridin-3-one], on human Nav1.8, the IC50 stood at 0.28 µM. Also, the ED50 in experiment [2] is 0.15 mg/kg.

Turning to `COC(CN1[C@@H]2CC[C@H]1C[C@@H](OCc1ccccc1F)C2)Cn1nc2ccccn2c1=O` (stereo partly drawn) [Example 157, (Endo)-2-{3-[3-(2-fluorobenzyloxy)-8-azabicyclo[3.2.1]oct-8-yl]-2-methoxypropyl}-2H-[1,2,4]triazolo[4,3-a]pyridin-3-one], the IC50 against human Nav1.8 worked out at 1.2 µM. In addition, in experiment [2], the ED50 worked out at 0.28 mg/kg.

In the case of `Cn1ccn2c(=O)n(CCCN3[C@@H]4CC[C@H]3C[C@@H](OCc3ccccc3F)C4)c(=O)nc12` [Example 174, (Endo)-3-{3-[3-(2-fluorobenzyloxy)-8-azabicyclo[3.2.1]oct-8-yl]propyl}-8-methyl-8H-imidazo[1,2-a][1,3,5]triazine-2,4-dione], the IC50 against human Nav1.8 stood at 0.89 µM. Besides, the ED50 in experiment [2] was 0.21 mg/kg.

As for `Cc1nc2ccccn2c(=O)c1CCN1[C@@H]2CC[C@H]1C[C@@H](OCc1ccccc1F)C2` [Example 179, (Endo)-3-{2-[3-(2-fluorobenzyloxy)-8-azabicyclo[3.2.1]oct-8-yl]ethyl}-2-methylpyrido[1,2-a]pyrimidin-4-one oxalate], the 50% inhibitory concentration (IC50) on human Nav1.8 is 8.7 µM. For the same molecule, in experiment [2], the median effective dose (ED50) came to 0.14 mg/kg.

`Cc1nc(C)n(C)c(=O)c1CCN1[C@@H]2CC[C@H]1C[C@@H](OCc1ccccc1F)C2` [Example 184, (Endo)-5-{2-[3-(2-fluorobenzyloxy)-8-azabicyclo[3.2.1]oct-8-yl]ethyl}-2,3,6-trimethyl-3H-pyrimidin-4-one oxalate] displayed an IC50 against human Nav1.8 of 7.6 µM. In addition, the 50% effective dose (ED50) in experiment [2] is 0.19 mg/kg.
